Experimental data from US7060477B2, “Epoxide hydrolases of aspergillus origin” (Centre National de la Recherche Scientifique, priority 1999, dated 2006).
Where two headings read alike, the source gives them in different places.

How the values were obtained:
[1] = test system: epoxide hydrolase from Aspergillus niger; test: Effect of selective reagents and co-solvents on epoxide hydrolase activity (pNSO as substrate, diol formed by HPLC); assay type: biochemical; conditions: for effect of co-solvent on the activity of epoxide hydrolase (opening of the epoxide): organic co-solvent for dissolving the substrate
Procedure: (§1) Add 50 μL of the preparation containing the enzyme to 410 μL of 0.1 M sodium phosphate buffer pH 7.0 (buffer B) and pre-incubate the mixture at 35° C. for 2 min. Then add 40 μL of a 50 mM solution of racemic pNSO in DMF (final pNSO concentration: 4 mM).
(§2) After 10 min of incubation, stop the reaction by adding 1 mL of dichloromethane. Stir the mixture vigorously so as to extract both the substrate and the diol produced. The quantity of diol formed is determined after separation on a column of silica by HPLC (high-pressure liquid chromatography) (Waters Associates, USA) as described previously (Nellaiah et al. 1996).
One unit of epoxide hydrolase represents the quantity of enzyme that catalyses the formation of one μmol of diol per minute in the above conditions. After incubation with raw extracts, the quantity of diol formed increases linearly with time for at least 30 min, and the reaction rate is proportional to the concentration of the enzyme in the range of 0.01 to 1.2 units (Nellaiah et al., 1996).

[2] = Hydrolysis of pNSO by the purified EH: pH/temperature profile, enantioselectivity, regioselectivity; assay type: biochemical, Aspergillus niger; set-up: activation energy: unit not given here
Procedure: as §1, §2
The incubations with H2[^18O] are carried out in 1 mL flasks containing 180 μL of H2[^18O] buffer B, 20 μL of the purified epoxide hydrolase and 20 μL of substrate (50 mM in acetonitrile). After 1.5 h of incubation at 25° C. with magnetic stirring (500 rpm) the substrate that remains and the product formed are extracted with 2 mL of dichloromethane. The diol is purified by analytical chromatography on silica (eluent: diethylether). 2 μL of samples are analysed by gas chromatography/mass spectrometry (GC/MS). The diol that remains is converted to the corresponding acetonide by reaction with […] in the presence of p-toluene sulphonic acid. The acetonide is analysed by GC/MS as already described by Audier et al., 1968.
Reaction in a total volume of 5 mL is carried out at 25° C., with a substrate with a concentration of 4.3 mM with DMSO (20 vol.%) as co-solvent in a 0.1 M sodium phosphate buffer pH 8.0.
The reaction is started by adding 13 U/L of the purified enzyme. Samples are taken every 30 minutes for quantification of the concentrations of the substrate and of product by HPLC using a reversed-phase column (Nellaiah et al., 1996) and for quantification of the enantiomeric excess of the epoxide and of the diol by gas-phase chromatography (Nellaiah et al., 1996).

[3] = Enzymatic activity of recombinant epoxide hydrolase and mutants (conversion of R enantiomer of para-nitrostyrene oxide to diol); assay type: biochemical, Aspergillus niger; conditions: 4-nitro-styrene oxide hydrolysed
Procedure: in the Ncol site that contains the starting codon of the pGEF+ vector in the context adapted to a ribosome binding site, upstream of the promoter of the RNA polymerase T7. The resulting plasmid is called pGEF II hereinafter. The PCR fragment AfIII/Eco RI of the EH of Aspergillus is ligated in the Ncol/Eco RI site of pGEF II to produce the pGEF Asp EH″ expression construction. The E. coli strain BL21 (DE 3) (Novagen) is transformed with pGEF Asp EH and put in the LB medium at 30° C. In late exponential phase, induction of expression of the recombinant protein is effected by adding isopropyl-β-thiogalactoside (100 μM). After two hours, the bacteria are collected by centrifugation, resuspended in 0.02 volumes of culture of the STE buffer (Tris-HCl, 10 mM, sodium chloride 100 mM, ethylenediamine tetraacetic acid 1 mM, pH 7.4) and stored at −70° C. Enzymatic activity is determined by converting the R enantiomer of para-nitrostyrene oxide to the corresponding diol. The reaction is carried out at a substrate concentration of 880 μM in 500 μL STE at 37° C. for 30 min, in the presence of 10 μL of acetonitrile which is used as solvent of para-nitrostyrene oxide. […]
The conversion substrate is quantified by adding 400 μL of supernatant to 800 μL of water and reading the optical density at 277 nm, with the molar extinction coefficient of the product being 9.1×10^3 M^−1 cm^−1. […]

[4] = Isoelectric point by electrofocusing; assay type: physicochemical, Aspergillus niger; conditions: pH gradient 3 to 9, silver nitrate staining
Procedure: SDS-PAGE electrophoresis is carried out on a plate with thickness of 1 mm containing a resolving gel (10% of acrylamide) and a concentrating gel (4% of acrylamide) at pH 8.8 in the presence of 0.1% of sodium dodecyl sulphate (SDS) (Laemmli, 1970). The samples are dissolved in a Tris-HCl buffer (62.5 mM, […]) containing 1% (w/v) of SDS, 10% (v/v) of glycerol and 2% (v/v) of β-mercaptoethanol, and are heated at 100° C. for 2 minutes. The proteins are stained with 0.1% (w/v) of Coomassie blue. Migrations on non-denaturing PAGE gels were effected in the same way except that no β-mercaptoethanol was added to the resolving buffer, and that the samples were not heated. Electrofocusing was carried out with a pH gradient of 3–9 by means of the Pharmacia LKB “Phastsystem” system and standard Pharmacia procedures. The proteins were stained with silver nitrate.

[5] = cited from earlier work
[6] = purified EH of Aspergillus niger, pNSO substrate

In the case of `O=C([O-])c1cc[c]([Hg][OH])cc1` [4-hydroxy-mercuribenzoate], the “effect of selective reagent on the activity of the enzyme” value (shortened to “effect of selective reagent”) [1, 6] is reported as “strong inactivation”.

For `CN(C)C=O` [DMF], the “effect of co-solvent on the activity of epoxide hydrolase (opening of the epoxide)” value (shortened to “effect of co-solvent”) ([1]; pNSO substrate) was “strongest activities”.

For `O=C(O)CN(CCN(CC(=O)O)CC(=O)O)CC(=O)O` [EDTA], the “effect of selective reagent” value [1] was “no effect”.

With `[Cl][Hg][Cl]` [HgCl2] the “effect of selective reagent” value [1, 6] was “strong inactivation”.

For `C1CCOC1` [THF], the “effect of co-solvent” value ([1]; pNSO substrate) was “low activity”.

With `CC(C)=O` [acetone] the “effect of co-solvent” value ([1]; pNSO substrate) was “strongest activities”.

With `N[C@@H](CS)C(=O)O` [cysteine] the “effect of selective reagent” value [1, 6] was “positive effect”.

For `OO` [hydrogen peroxide], the “effect of selective reagent” value [1, 6] was “strongly inhibit”.

For `NC(=O)CI` [iodoacetamide], the “effect of selective reagent” value [1, 6] was “strong inactivation”.

With `O=C(OO)c1cccc(Cl)c1` [meta-chloroperbenzoic acid] the “effect of selective reagent” value [1, 6] was “strongly inhibit”.

For `OCCS` [β-mercaptoethanol], the “effect of selective reagent” value [1, 6] was “positive effect”.

With phenylmethane sulphonyl chloride [PMSF] the “effect of selective reagent” value [1, 6] was “no effect”.

B1: EH from Aspergillus niger: fungal epoxide hydrolase represented by SEQ ID NO: 2, purified from Aspergillus niger LCP521 or recombinant in E. coli (protein)
chain: MSAPFAKFPSSASISPNPFTVSIPDEQLDDLKTLVRLSKIAPPTYESLQADGRFGITSEWLTTMREKWLSEFDWRPFEARLNSFPQFTTEIEGLTIHFAALFSEREDAVPIALLHGWPGSFVEFYPILQLFREEYTPETLPFHLVVPSLPGYTFSSGPPLDKDFGLMDNARVVDQLMKDLGFGSGYIIQGGDIGSFVGRLLGVGFDACKAVHLNLCAMRAPPEGPSIESLSAAEKEGIARMEKFMTDGLAYAMEHSTRPSTIGHVLSSSPIALLAWIGEKYLQWVDKPLPSETILEMVSLYWLTESFPRAIHTYRETTPTASAPNGATMLQKELYIHKPFGFSFFPKDLCPVPRSWIATTGNLVFFRDHAEGGHFAALERPRELKTDLTAFVEQVWQK
modifications: Aspergillus niger
In the case of B1, the “pH of maximum activity” value [2] is reported as 7 pH, the “temperature of maximum activity” value [2] is reported as 40 °C and the “regioselectivity of the reaction” value ([2]; for the 2 carbon, pNSO) is reported as 97%. The activation energy ([2]; from 2 to 40° C.) was 27, the “ratio of the specific constant (kcat/Km): initial rate of hydrolysis of (R) enantiomer versus (S) enantiomer” value ([2]; starting from racemic pNSO) was 55 times and the specific activity [3] was 100 μmol per minute and milligram. For the same molecule, the isoelectric point [4] was 4.5.

B2: rat microsomal epoxide hydrolase (mEH): rat microsomal epoxide hydrolase, literature comparison enzyme (protein, UniProt P07687 1-455, looked up)
Epoxide hydrolase 1: MWLELVLASLLGFVIYWFVSRDKEETLPLGDGWWGPGSKPSAKEDESIRPFKVETSDEEIKDLHQRIDRFRASPPLEGSRFHYGFNSNYMKKVVSYWRNEFDWRKQVEILNQYPHFKTKIEGLDIHFIHVKPPQLPSGRTPKPLLMVHGWPGSFYEFYKIIPLLTDPKSHGLSDEHVFEVICPSIPGYGYSEASSKKGLNSVATARIFYKLMTRLGFQKFYIQGGDWGSLICTNMAQMVPNHVKGLHLNMAFISRSFYTMTPLLGQRFGRFLGYTEKDIELLYPYKEKVFYSIMRESGYLHIQATKPDTVGCALNDSPVGLAAYILEKFSTWTKSEYRELEDGGLERKFSLDDLLVNIMIYWTTGTIVSSQRYYKENLGQGIMVHKHEGMKVFVPTGFSAFPSELLHAPEKWVKVKYPKLISYSYMERGGHFAAFEEPKLLAQDIRKFVSLAELQ
For B2, the “conversion number increased by a factor” value ([5]; on replacing Glu^404 of the charge relay system with aspartic acid) is given as 30 and the specific activity ([5]; styrene oxide and benzo[α]pyrene oxide) is given as “about 500 nmol converted per minute and milligram of pure enzyme”.
